# Values of other authors, collected in US20110311589A1 (priority 2008, published 2011).
# System: helminthiasis
# Conditions: in vivo
structure (smiles),measurement,value
c1ccc([C@H]2CN3CCSC3=N2)cc1 [Levamisole],"Dosages too low, ineffective in treating helminthiasis",less than 6 mg per kg of body weight
